One test concerns Calcineurin. The test can be described thus: FRET-based calcineurin activity assay with okadaic acid. It counts as biochemical. The note with it: similar range of okadaic acid; FIG. 9. The protocol: (§1) Okadaic acid is a known inhibitor if PP1/2A.
2. Calcineurin activity was assessed by mixing equal parts lysate, RII or other peptide sample), and reacted for 5-10 mins at 30° C. Control reactions were included that contained known varying amounts of purified calcineurin to calculate a standard curve for each plate.
3. To stop the reaction, a solution of 10% acetyl nitrile and 0.01% acetic acid solution was added. This step was essential to reduce the pH of the reaction to below 3.5 and enable the binding of the titanium oxide beads to the target peptide.
4. FLUOR-titanium oxide beads were added with gentle shaking for 5 mins. Phosphorylated-peptides were retained on the beads producing a “shifted” TAMRA signal while non-phosphorylated peptides were unbound.
5. Reactions were neutralized with 0.35% ammonium hydroxide to return the pH to greater than 7 and the fluorescence of each sample will be read at 450 nm excitation/580 nm emission.
6. Calcineurin activity was then determined by calculating the slope and y-intercept of the standard curve and then extrapolating calcineurin activity from the fluorescence intensity.

A further test deals with PP1/2A. The test can be described thus: FRET-based phosphatase activity assay in PP1/2A buffer. The note with it: FIG. 9. It counts as biochemical.
From the text: FIG. 8 is a graph showing that in the PP1A/2A buffer, a linear range of phosphatase activity not attributable to calcineurin activity was detected.
as §1

As to `C=C1[C@@H](O)[C@@H]2O[C@]3(CC[C@H](/C=C/[C@@H](C)[C@@H]4CC(C)=C[C@@]5(O[C@H](C[C@@](C)(O)C(=O)O)CC[C@H]5O)O4)O3)CC[C@H]2O[C@@H]1[C@@H](O)C[C@H](C)[C@H]1O[C@@]2(CCCCO2)CC[C@H]1C` [okadaic acid], the “calcineurin activity, sensitivity to okadaic acid” value in the test on Calcineurin is listed as “not sensitive to further reduction”. The “phosphatase activity detected in the PP1/2A buffer, inhibition” value in the test on PP1/2A was “sensitive to inhibition with okadaic acid, in a dose-dependent fashion”.
